Measurements: PubChem BioAssay AID1963825 (Molecular Pharmacology Branch, DTP, NCI, 2024)

Assay: Anticancer human tumor 997537-175-T-J1-PDC patient-derived colon adenocarcinoma cell line growth inhibition [POLQ]
Conditions: 997537-175-T-J1-PDC complex spheroid viability, combination with POLQ inhibitors; for IC50: curve of first compound; for viability, T/C: stronger effect = lower value
Summary of the method: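 Complex spheroid viability model combining PDC tumour cells with endothelial (HUVEC) and MSC stromal cells. Novobiocin, ART-558 or RP6685 were tested singly and in combination with standard and investigational anticancer drugs. Each was titrated in half-log steps from near clinical Cmax, or from 10 microM where Cmax was unknown.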

[1] = second compound 0.0316 µM, first compound 0.0316 µM
[2] = second compound 0.0316 µM, first compound 0.1 µM
[3] = second compound 0.0316 µM, first compound 0.316 µM
[4] = second compound 0.0316 µM, first compound 1 µM
[5] = second compound 0.0316 µM, first compound 3.16 µM
[6] = second compound 0.0316 µM, first compound 10 µM
[7] = second compound 0.1 µM, first compound 0.0316 µM
[8] = second compound 0.1 µM, first compound 0.1 µM
[9] = second compound 0.1 µM, first compound 0.316 µM
[10] = second compound 0.1 µM, first compound 1 µM
[11] = second compound 0.1 µM, first compound 3.16 µM
[12] = second compound 0.1 µM, first compound 10 µM
[13] = second compound 0.316 µM, first compound 0.0316 µM
[14] = second compound 0.316 µM, first compound 0.1 µM
[15] = second compound 0.316 µM, first compound 0.316 µM
[16] = second compound 0.316 µM, first compound 1 µM
[17] = second compound 0.316 µM, first compound 3.16 µM
[18] = second compound 0.316 µM, first compound 10 µM
[19] = second compound 1 µM, first compound 0.0316 µM
[20] = second compound 1 µM, first compound 0.1 µM
[21] = second compound 1 µM, first compound 0.316 µM
[22] = second compound 1 µM, first compound 1 µM
[23] = second compound 1 µM, first compound 3.16 µM
[24] = second compound 1 µM, first compound 10 µM
[25] = second compound 3.16 µM, first compound 0.0316 µM
[26] = second compound 3.16 µM, first compound 0.1 µM
[27] = second compound 3.16 µM, first compound 0.316 µM
[28] = second compound 3.16 µM, first compound 1 µM
[29] = second compound 3.16 µM, first compound 3.16 µM
[30] = second compound 3.16 µM, first compound 10 µM
[31] = second compound 10 µM, first compound 0.0316 µM
[32] = second compound 10 µM, first compound 0.1 µM
[33] = second compound 10 µM, first compound 0.316 µM
[34] = second compound 10 µM, first compound 1 µM
[35] = second compound 10 µM, first compound 3.16 µM
[36] = second compound 10 µM, first compound 10 µM
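Note: luminescence signal used as a surrogate for viable cells; spheroids exposed to drugs for seven days before readout.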

COc1cc2cc(C(=O)CCC(=O)O)sc2cc1OC + Cc1cccc(N(C)C(=O)C2C(O)CCN2c2nc(C)cc(C(F)(F)F)c2C#N)c1
IC50 (second compound 0.0316 µM): > 10 µM
IC50 (second compound 0.1 µM): > 10 µM
IC50 (second compound 0.316 µM): > 10 µM
IC50 (second compound 1 µM): > 10 µM
IC50 (second compound 3.16 µM): > 10 µM
IC50 (second compound 10 µM): > 10 µM
viability, T/C [1]: 110%
viability, T/C [2]: 102%
viability, T/C [3]: 99.3%
viability, T/C [4]: 111%
viability, T/C [5]: 98.4%
viability, T/C [6]: 88.3%
viability, T/C [7]: 98.7%
viability, T/C [8]: 120%
viability, T/C [9]: 94.7%
viability, T/C [10]: 105%
viability, T/C [11]: 99.3%
viability, T/C [12]: 93.3%
viability, T/C [13]: 105%
viability, T/C [14]: 97.7%
viability, T/C [15]: 87.5%
viability, T/C [16]: 80.8%
viability, T/C [17]: 98.6%
viability, T/C [18]: 93.6%
viability, T/C [19]: 108%
viability, T/C [20]: 90.5%
viability, T/C [21]: 105%
viability, T/C [22]: 102%
viability, T/C [23]: 101%
viability, T/C [24]: 92.8%
viability, T/C [25]: 94.5%
viability, T/C [26]: 121%
viability, T/C [27]: 90.5%
viability, T/C [28]: 96.2%
viability, T/C [29]: 115%
viability, T/C [30]: 97.8%
viability, T/C [31]: 98%
viability, T/C [32]: 104%
viability, T/C [33]: 107%
viability, T/C [34]: 105%
viability, T/C [35]: 118%
viability, T/C [36]: 87.3%

CCc1cc2c(N3CCc4c(cc(Cn5ccnc5)cc4-c4cn(C)nc4C(F)(F)F)C3=O)ccnc2c(OC)n1 + Nc1ccc(C#CCN(C(=O)Cc2ncc(C(F)(F)F)cc2C(F)(F)F)c2ccc(F)cc2)nn1
IC50 (second compound 0.0316 µM): > 10 µM
IC50 (second compound 0.1 µM): > 10 µM
IC50 (second compound 0.316 µM): > 10 µM
IC50 (second compound 1 µM): > 10 µM
IC50 (second compound 3.16 µM): > 10 µM
IC50 (second compound 10 µM): > 10 µM
viability, T/C [1]: 89.5%
viability, T/C [2]: 110%
viability, T/C [3]: 94.7%
viability, T/C [4]: 97.2%
viability, T/C [5]: 85.9%
viability, T/C [6]: 57.8%
viability, T/C [7]: 94.6%
viability, T/C [8]: 98.2%
viability, T/C [9]: 87%
viability, T/C [10]: 114%
viability, T/C [11]: 82.1%
viability, T/C [12]: 63.2%
viability, T/C [13]: 92.4%
viability, T/C [14]: 93.5%
viability, T/C [15]: 83.5%
viability, T/C [16]: 94.6%
viability, T/C [17]: 68.4%
viability, T/C [18]: 61.8%
viability, T/C [19]: 103%
viability, T/C [20]: 104%
viability, T/C [21]: 97.3%
viability, T/C [22]: 77%
viability, T/C [23]: 77.4%
viability, T/C [24]: 86.9%
viability, T/C [25]: 97%
viability, T/C [26]: 76.5%
viability, T/C [27]: 90.5%
viability, T/C [28]: 91.2%
viability, T/C [29]: 71.6%
viability, T/C [30]: 64.1%
viability, T/C [31]: 97.4%
viability, T/C [32]: 96.2%
viability, T/C [33]: 101%
viability, T/C [34]: 91%
viability, T/C [35]: 79.5%
viability, T/C [36]: 75.5%
